The target in one assay is rat α6/α3β4 nAChR (Rattus norvegicus, UniProt P04757+P12392+P43143). In words: cell-based. Particulars: for IC50: α6/α3β4 IC50 (half-blocking dose).
Another assay has as its target rat α3β4 nAChR (Rattus norvegicus, UniProt P04757+P12392). In words: cell-based. The conditions noted are these: for IC50: α3β4 IC50 (half-blocking dose).

Peptide text beside a SMILES is read from it.

Chain of rat α6/α3β4 nAChR (P04757 whole entry, looked up): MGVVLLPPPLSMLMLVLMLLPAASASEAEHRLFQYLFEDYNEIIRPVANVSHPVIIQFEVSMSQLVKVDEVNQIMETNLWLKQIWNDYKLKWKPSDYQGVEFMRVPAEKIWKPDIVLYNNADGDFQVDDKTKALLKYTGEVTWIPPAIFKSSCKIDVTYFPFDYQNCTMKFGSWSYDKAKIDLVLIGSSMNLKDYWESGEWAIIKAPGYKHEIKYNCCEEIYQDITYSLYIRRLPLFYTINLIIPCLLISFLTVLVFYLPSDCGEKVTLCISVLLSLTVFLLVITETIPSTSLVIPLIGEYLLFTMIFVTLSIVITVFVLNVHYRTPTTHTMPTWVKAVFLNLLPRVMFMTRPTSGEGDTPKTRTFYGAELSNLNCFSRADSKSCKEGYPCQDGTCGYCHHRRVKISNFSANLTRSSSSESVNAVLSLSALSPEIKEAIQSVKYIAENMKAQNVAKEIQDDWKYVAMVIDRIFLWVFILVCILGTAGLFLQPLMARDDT
Chain of rat α6/α3β4 nAChR (P12392 whole entry, looked up): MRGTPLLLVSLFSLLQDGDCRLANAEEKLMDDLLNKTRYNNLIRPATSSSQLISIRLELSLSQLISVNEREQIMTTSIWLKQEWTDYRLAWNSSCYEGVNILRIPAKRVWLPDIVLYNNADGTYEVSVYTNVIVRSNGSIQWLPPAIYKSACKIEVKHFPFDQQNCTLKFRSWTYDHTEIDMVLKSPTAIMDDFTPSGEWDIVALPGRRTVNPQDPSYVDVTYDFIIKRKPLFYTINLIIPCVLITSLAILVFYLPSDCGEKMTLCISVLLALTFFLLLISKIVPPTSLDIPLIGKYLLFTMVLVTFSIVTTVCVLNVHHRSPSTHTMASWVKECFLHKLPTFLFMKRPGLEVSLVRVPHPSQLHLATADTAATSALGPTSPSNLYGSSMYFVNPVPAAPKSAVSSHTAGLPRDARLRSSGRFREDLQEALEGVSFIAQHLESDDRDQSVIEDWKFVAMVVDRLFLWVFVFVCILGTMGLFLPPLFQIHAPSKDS
Chain of rat α6/α3β4 nAChR (P43143 whole entry, looked up): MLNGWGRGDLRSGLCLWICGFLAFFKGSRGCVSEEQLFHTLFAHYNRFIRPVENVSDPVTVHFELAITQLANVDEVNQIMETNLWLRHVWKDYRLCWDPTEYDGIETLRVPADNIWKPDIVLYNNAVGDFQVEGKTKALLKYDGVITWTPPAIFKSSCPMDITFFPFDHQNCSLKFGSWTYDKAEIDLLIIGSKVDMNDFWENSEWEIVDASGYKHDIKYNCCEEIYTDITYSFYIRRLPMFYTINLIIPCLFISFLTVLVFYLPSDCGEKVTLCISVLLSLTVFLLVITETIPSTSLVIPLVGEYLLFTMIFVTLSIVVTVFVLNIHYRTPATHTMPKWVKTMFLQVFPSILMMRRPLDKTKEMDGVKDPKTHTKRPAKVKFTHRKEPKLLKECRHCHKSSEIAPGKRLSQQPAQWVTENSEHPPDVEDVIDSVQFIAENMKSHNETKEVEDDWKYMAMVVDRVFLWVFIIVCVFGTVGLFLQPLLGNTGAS
Chain of rat α3β4 nAChR (P04757 26-499 limits assumed): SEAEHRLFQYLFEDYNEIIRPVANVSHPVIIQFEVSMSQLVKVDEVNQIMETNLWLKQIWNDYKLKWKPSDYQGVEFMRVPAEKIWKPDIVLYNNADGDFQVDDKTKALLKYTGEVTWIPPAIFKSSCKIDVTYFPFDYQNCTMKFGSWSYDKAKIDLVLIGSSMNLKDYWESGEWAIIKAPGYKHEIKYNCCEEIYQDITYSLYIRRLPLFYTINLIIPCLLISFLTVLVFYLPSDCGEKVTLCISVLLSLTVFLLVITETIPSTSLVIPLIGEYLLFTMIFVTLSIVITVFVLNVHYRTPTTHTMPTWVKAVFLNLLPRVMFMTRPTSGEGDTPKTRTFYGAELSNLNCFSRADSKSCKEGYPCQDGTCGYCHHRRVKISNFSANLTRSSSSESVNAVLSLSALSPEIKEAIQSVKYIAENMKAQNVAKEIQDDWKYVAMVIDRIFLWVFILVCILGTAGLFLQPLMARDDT
Chain of rat α3β4 nAChR (P12392 21-495 limits assumed): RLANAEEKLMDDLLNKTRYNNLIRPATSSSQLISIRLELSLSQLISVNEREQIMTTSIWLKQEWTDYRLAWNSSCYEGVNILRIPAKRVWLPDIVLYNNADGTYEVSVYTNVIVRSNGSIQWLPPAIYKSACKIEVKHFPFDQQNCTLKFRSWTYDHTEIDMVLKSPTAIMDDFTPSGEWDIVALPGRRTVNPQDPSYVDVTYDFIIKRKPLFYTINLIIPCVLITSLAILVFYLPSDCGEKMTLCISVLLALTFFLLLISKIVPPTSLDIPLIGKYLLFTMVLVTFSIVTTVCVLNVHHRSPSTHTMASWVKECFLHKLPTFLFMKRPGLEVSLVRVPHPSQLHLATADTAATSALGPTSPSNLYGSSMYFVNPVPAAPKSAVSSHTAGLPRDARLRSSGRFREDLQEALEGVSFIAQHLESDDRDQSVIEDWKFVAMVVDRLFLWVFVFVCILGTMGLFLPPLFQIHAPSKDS

The term IC50 denotes the concentration that inhibits the measured activity by half. Low values mean greater potency in that assay, high ones weaker potency in that assay. `CC[C@H](C)[C@@H]1NC(=O)[C@@H]2CCCN2C(=O)[C@H](CO)NC(=O)[C@H](CCSC)NC(=O)[C@H](C)NC(=O)[C@H](CO)NC(=O)[C@@H]2CSSC[C@H](NC(=O)CN)C(=O)N[C@@H](CSSC[C@@H](C(N)=O)NC1=O)C(=O)N[C@@H](CO)C(=O)N[C@@H](Cc1c[nH]c3ccccc13)C(=O)N1CCC[C@H]1C(=O)N[C@@H](C(C)C)C(=O)N2` [TxID[H5W]] (HELM PEPTIDE1{G.C.C.S.W.P.V.C.S.A.M.S.P.I.C.[am]}$PEPTIDE1,PEPTIDE1,2:R3-8:R3|PEPTIDE1,PEPTIDE1,3:R3-15:R3$$$V2.0): the IC50 against rat α6/α3β4 nAChR and against rat α3β4 nAChR was greater than 10000 nM throughout.

With `CC[C@H](C)[C@@H]1NC(=O)[C@@H]2CCCN2C(=O)[C@H](Cc2ccc(O)cc2)NC(=O)[C@H](CCSC)NC(=O)[C@H](C)NC(=O)[C@H](CO)NC(=O)[C@@H]2CSSC[C@H](NC(=O)CN)C(=O)N[C@@H](CSSC[C@@H](C(N)=O)NC1=O)C(=O)N[C@@H](CO)C(=O)N[C@@H](Cc1c[nH]cn1)C(=O)N1CCC[C@H]1C(=O)N[C@@H](C(C)C)C(=O)N2` [TxID[S12Y]] (HELM PEPTIDE1{G.C.C.S.H.P.V.C.S.A.M.Y.P.I.C.[am]}$PEPTIDE1,PEPTIDE1,2:R3-8:R3|PEPTIDE1,PEPTIDE1,3:R3-15:R3$$$V2.0), on rat α6/α3β4 nAChR, the “IC50 ratio of α6/α3β4 vs. α3β4 (Discrimination)” value stood at 3.8, the “α6/α3β4 IC50 ratio” value was 1.0 and the IC50 is 34.2 nM. Besides, on rat α3β4 nAChR, the “α3β4 IC50 ratio” value came to 2.5 and half-maximal inhibition (IC50) was put at 9.09 nM.

With `CC[C@H](C)[C@@H]1NC(=O)[C@@H]2CCCN2C(=O)[C@H](CO)NC(=O)[C@H](CCSC)NC(=O)[C@H](C)NC(=O)[C@H](CC(=O)O)NC(=O)[C@@H]2CSSC[C@H](NC(=O)CN)C(=O)N[C@@H](CSSC[C@@H](C(N)=O)NC1=O)C(=O)N[C@@H](CO)C(=O)N[C@@H](Cc1c[nH]cn1)C(=O)N1CCC[C@H]1C(=O)N[C@@H](C(C)C)C(=O)N2` [TxID[S9D]] (HELM PEPTIDE1{G.C.C.S.H.P.V.C.D.A.M.S.P.I.C.[am]}$PEPTIDE1,PEPTIDE1,2:R3-8:R3|PEPTIDE1,PEPTIDE1,3:R3-15:R3$$$V2.0), at rat α6/α3β4 nAChR, the “blocking effect on the current of rat α6/α3β4 nAChRs” value is “no blocking effect”.

Turning to `CC[C@H](C)[C@@H]1NC(=O)[C@H](C)NC(=O)[C@H](CO)NC(=O)[C@@H]2CSSC[C@H](NC(=O)CN)C(=O)N[C@@H](CSSC[C@@H](C(N)=O)NC(=O)[C@H]([C@@H](C)CC)NC(=O)[C@@H]3CCCN3C(=O)[C@H](CO)NC1=O)C(=O)N[C@@H](CO)C(=O)N[C@@H](Cc1c[nH]cn1)C(=O)N1CCC[C@H]1C(=O)N[C@@H](C(C)C)C(=O)N2` [TxID[M11I]] (HELM PEPTIDE1{G.C.C.S.H.P.V.C.S.A.I.S.P.I.C.[am]}$PEPTIDE1,PEPTIDE1,2:R3-8:R3|PEPTIDE1,PEPTIDE1,3:R3-15:R3$$$V2.0), the “binding (blocking) activity to α6/α3β4 nAChR compared with wild type TxID” value at rat α6/α3β4 nAChR was “not a decrease”.

As for `CC[C@H](C)[C@@H]1NC(=O)[C@@H]2CCCN2C(=O)[C@H](CO)NC(=O)[C@H](CCSC)NC(=O)[C@H](C)NC(=O)[C@H](CO)NC(=O)[C@@H]2CSSC[C@H](NC(=O)[C@H](C)N)C(=O)N[C@@H](CSSC[C@@H](C(N)=O)NC1=O)C(=O)N[C@@H](CO)C(=O)N[C@@H](Cc1c[nH]cn1)C(=O)N1CCC[C@H]1C(=O)N[C@@H](C(C)C)C(=O)N2` [TxID[G1A]] (HELM PEPTIDE1{A.C.C.S.H.P.V.C.S.A.M.S.P.I.C.[am]}$PEPTIDE1,PEPTIDE1,2:R3-8:R3|PEPTIDE1,PEPTIDE1,3:R3-15:R3$$$V2.0), the IC50 against rat α6/α3β4 nAChR was 100 to 1000 nM.

(Values after US20190330275A1 (priority 2016, published 2019).)
